Test [1] has as its target T1, KRas-mediated phosphorylation of ERK in MKN1 cells (Homo sapiens, UniProt P01116).
T1 construct: pERK HTRF read-out
The test is described as follows: Inhibition of KRas-mediated phosphorylation of ERK (HTRF), MKN1 cells. The format is cell-based. Particulars: MKN1 cells (KRas WT); HTRF pERK; 3 h incubation. As to the method: Inhibition of KRas Phosphorylation of ERK (HTRF) by Exemplary Compounds of Formula (Ia) or (Ib)
Cisbio HTRF Advanced pERK Assay Catalog #64AERPEH • Cells: MKN1, PSN1 • Procedure: • 1. Day 1: Seed 6,000 cells/well −25 μl/well in 384-well white solid bottom plate; RPM1_10% FBS. Incubate overnight at 37 °C/5% CO2. • 2.

The target in test [2] is T2, KRas-mediated phosphorylation of ERK in A549 cells (Homo sapiens, UniProt P01116, G12S).
T2 construct: pERK HTRF read-out
The test is described as follows: Inhibition of KRas-mediated phosphorylation of ERK (HTRF), A549 cells. The format is cell-based. The note with it: HTRF pERK, 3 h incubation. A general note: Time-resolved FRET reads energy transfer from a long-lived donor to a nearby acceptor.

For test [3], the target named is T3, KRas-mediated phosphorylation of ERK in H358 cells (Homo sapiens, UniProt P01116, G12C).
T3 construct: pERK HTRF read-out
In words: Inhibition of KRas-mediated phosphorylation of ERK (HTRF), H358 cells. The format is cell-based. The note with it: HTRF pERK, 3 h incubation.

The target of a further test is T4, KRas G12S (Homo sapiens, UniProt P01116, G12S).
T4 construct: Biotinylated KRas (corresponding to amino acids 1-169, produced at Accelegan Inc.); biotin (biotinylated); purchased Accelegan Inc
The test is described as follows: KRas binding assay, TR-FRET displacement of Cy5 labelled tracer. Particulars: 60-minute incubation at room temperature, 1% DMSO, pH 7.5. The procedure, abridged:
(§1)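 KRas aa 1-169, biotinylated; Tb-streptavidin donor; 1% DMSO final. Buffer: HEPES 50 mM (pH 7.5), MgCl2 5 mM, DTT 1 mM, Tween-20 0.005%. 60 min, RT. IC50 from 4-parameter fit of POC.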

The target of a further test is T5, KRas WT (Homo sapiens, UniProt P01116).
T5 construct: Biotinylated KRas (corresponding to amino acids 1-169, produced at Accelegan Inc.); biotin (biotinylated); purchased Accelegan Inc
Described as above. Particulars: 60-minute incubation at room temperature, 1% DMSO, pH 7.5. In a few lines: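 Room-temperature incubation (60 min) of compound with biotinylated KRas 1-169, tracer and Tb-streptavidin preceded the TR-FRET read. Final DMSO was 1%; buffer pH 7.5. Percent-of-control values went into a 4-parameter equation to give IC50.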

The target of another test is T6, KRas G12C (Homo sapiens, UniProt P01116, G12C).
T6 construct: Biotinylated KRas (corresponding to amino acids 1-169, produced at Accelegan Inc.); biotin (biotinylated); purchased Accelegan Inc
Described as above. Particulars: 60-minute incubation at room temperature, 1% DMSO, pH 7.5. In a few lines:
as §1

Some results are limits rather than exact numbers.

T4 sequence (P01116 1-169 isoform P01116-2 G12S): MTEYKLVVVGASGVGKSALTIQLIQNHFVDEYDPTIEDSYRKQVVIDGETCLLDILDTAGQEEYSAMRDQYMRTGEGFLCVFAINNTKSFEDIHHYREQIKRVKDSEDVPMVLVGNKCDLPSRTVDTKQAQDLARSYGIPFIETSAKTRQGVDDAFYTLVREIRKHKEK
T1 sequence (P01116 1-188 isoform P01116-2): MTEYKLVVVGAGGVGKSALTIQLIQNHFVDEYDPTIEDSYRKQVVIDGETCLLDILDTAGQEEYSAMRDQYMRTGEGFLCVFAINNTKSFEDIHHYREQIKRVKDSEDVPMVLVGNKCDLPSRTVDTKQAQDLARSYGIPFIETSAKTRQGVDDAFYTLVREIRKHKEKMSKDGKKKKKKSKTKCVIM
T3 sequence (P01116 1-188 isoform P01116-2 G12C): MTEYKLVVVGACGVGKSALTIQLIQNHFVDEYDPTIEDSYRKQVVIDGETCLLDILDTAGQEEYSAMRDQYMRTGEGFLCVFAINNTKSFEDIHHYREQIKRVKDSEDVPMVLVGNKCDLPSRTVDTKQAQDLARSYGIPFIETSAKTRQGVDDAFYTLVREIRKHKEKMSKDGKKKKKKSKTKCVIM
T6 sequence (P01116 1-169 isoform P01116-2 G12C): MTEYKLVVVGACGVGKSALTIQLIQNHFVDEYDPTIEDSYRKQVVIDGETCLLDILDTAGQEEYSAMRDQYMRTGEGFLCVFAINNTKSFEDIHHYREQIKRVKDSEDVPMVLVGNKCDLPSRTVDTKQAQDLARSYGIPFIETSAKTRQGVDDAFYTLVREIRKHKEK
T2 sequence (P01116 1-188 isoform P01116-2 G12S): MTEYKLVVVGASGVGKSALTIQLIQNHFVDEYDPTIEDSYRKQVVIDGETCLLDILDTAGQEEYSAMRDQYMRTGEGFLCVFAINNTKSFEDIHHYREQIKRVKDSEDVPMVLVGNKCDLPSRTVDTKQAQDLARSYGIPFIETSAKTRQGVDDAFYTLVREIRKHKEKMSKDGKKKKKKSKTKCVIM
T5 sequence (P01116 1-169 isoform P01116-2): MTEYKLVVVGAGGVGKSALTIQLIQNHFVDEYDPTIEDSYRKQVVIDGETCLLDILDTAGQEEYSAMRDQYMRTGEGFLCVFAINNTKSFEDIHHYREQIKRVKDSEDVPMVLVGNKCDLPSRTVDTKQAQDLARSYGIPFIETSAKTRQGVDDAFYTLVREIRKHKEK

Broadly, the IC50 is the concentration that inhibits the measured activity by half. For the compound `COc1ccn(C(=O)C2CCCN(c3nc(OC[C@@]45CCCN4C[C@H](F)C5)nc4c(F)c(-c5ccc(F)c6sc(N)c(C#N)c56)c(Cl)cc34)CC2)n1` (stereo partly drawn) [Example 140, 2-amino-4-(6-chloro-8-fluoro-2-(((2R,7aS)-2-fluorotetrahydro-1H-pyrrolizin-7a(5H)-yl)methoxy)-4-(4-(3-methoxy-1H-pyrazole-1-carbonyl)azepan-1-yl)quinazolin-7-yl)-7-fluorobenzo[b]thiophene-3-carbonitrile], the 50% inhibitory concentration (IC50) in test [1] stood at 178 nM; in test [2], 8 nM; in test [3], 22 nM; at KRas G12S, 3 nM; on KRas WT, 15 nM; at KRas G12C it was 11 nM.
Take `Cc1ccn(C(=O)CCCN(C)c2nc(OC[C@@]34CCCN3C[C@H](F)C4)nc3c(F)c(-c4ccc(F)c5sc(N)c(C#N)c45)c(Cl)cc23)n1` [Example 141, 2-amino-4-(6-chloro-8-fluoro-2-(((2R,7aS)-2-fluorotetrahydro-1H-pyrrolizin-7a(5H)-yl)methoxy)-4-(methyl (4-(3-methyl-1H-pyrazol-1-yl)-4-oxobutyl)amino)quinazolin-7-yl)-7-fluorobenzo[b]thiophene-3-carbonitrile]: the IC50 in test [1] is 363 nM; in test [2] it was 10 nM; in test [3] it was 26 nM; at KRas G12S, under 2 nM; at KRas WT it was 11 nM; at KRas G12C it was under 2 nM.
As to `Cc1ccn(C(=O)CCCNc2nc(OC[C@@]34CCCN3C[C@H](F)C4)nc3c(F)c(-c4ccc(F)c5sc(N)c(C#N)c45)c(Cl)cc23)n1` [Example 142, 2-amino-4-(6-chloro-8-fluoro-2-(((2R,7aS)-2-fluorotetrahydro-1H-pyrrolizin-7a(5H)-yl)methoxy)-4-((4-(3-methyl-1H-pyrazol-1-yl)-4-oxobutyl)amino)quinazolin-7-yl)-7-fluorobenzo[b]thiophene-3-carbonitrile], the IC50 in test [1] is 531 nM; in test [2], 7 nM; in test [3], 8 nM; at KRas G12S, under 2 nM; at KRas WT, 10 nM; at KRas G12C, under 2 nM.
As for `CCc1c(F)ccc2cc(O)cc(N3CCc4c(nc(OC[C@@]56CCCN5C[C@H](F)C6)nc4N4CCCC(C(=O)n5ccc(C)n5)CC4)C3)c12` (stereo partly drawn) [Example 145, (1-(7-(8-ethyl-7-fluoro-3-hydroxynaphthalen-1-yl)-2-(((2R,7aS)-2-fluorotetrahydro-1H-pyrrolizin-7a(5H)-yl)methoxy)-5,6,7,8-tetrahydropyrido[3,4-d]pyrimidin-4-yl)azepan-4-yl)(3-methyl-1H-pyrazol-1-yl)methanone], the IC50 was found to be 4010 nM in test [1]; 137 nM in test [2]; 2810 nM in test [3]; 27 nM at KRas G12S; 331 nM on KRas WT; 237 nM on KRas G12C.
On to `CCc1c(F)ccc2cc(O)cc(N3CCc4c(nc(OC[C@@]56CCCN5C[C@H](F)C6)nc4N4CCC(C(=O)n5ccc(C)n5)CC4)C3)c12` [Example 146, (1-(7-(8-ethyl-7-fluoro-3-hydroxynaphthalen-1-yl)-2-(((2R,7aS)-2-fluorotetrahydro-1H-pyrrolizin-7a(5H)-yl)methoxy)-5,6,7,8-tetrahydropyrido[3,4-d]pyrimidin-4-yl)piperidin-4-yl)(3-methyl-1H-pyrazol-1-yl)methanone], for which the IC50 was 2530 nM in test [1]; over 10000 nM in test [2]; 3830 nM in test [3]; 477 nM at KRas G12S; 412 nM at KRas WT; 676 nM on KRas G12C.
`CCc1c(F)ccc2cc(O)cc(-c3ncc4c(N5CCN(C(=O)n6ccnc6)CC5)nc(OC[C@@]56CCCN5C[C@H](F)C6)nc4c3F)c12` [Example 150, (4-(7-(8-ethyl-7-fluoro-3-hydroxynaphthalen-1-yl)-8-fluoro-2-(((2R,7aS)-2-fluorotetrahydro-1H-pyrrolizin-7a(5H)-yl)methoxy)pyrido[4,3-d]pyrimidin-4-yl)piperazin-1-yl)(1H-imidazol-1-yl)methanone]: the IC50 in test [1] amounted to 40 nM; in test [2], 1580 nM; in test [3], 39 nM; at KRas G12S, 3 nM; on KRas WT, 2 nM; at KRas G12C it was 5 nM.
Consider `CCc1c(F)ccc2cc(O)cc(-c3ncc4c(N5CCN(C(=O)n6ccnn6)CC5)nc(OC[C@@]56CCCN5C[C@H](F)C6)nc4c3F)c12` [Example 151, (4-(7-(8-ethyl-7-fluoro-3-hydroxynaphthalen-1-yl)-8-fluoro-2-(((2R,7aS)-2-fluorotetrahydro-1H-pyrrolizin-7a(5H)-yl)methoxy)pyrido[4,3-d]pyrimidin-4-yl)piperazin-1-yl)(1H-1,2,3-triazol-1-yl)methanone], for which the IC50 was 72 nM in test [1]; 1210 nM in test [2]; 14 nM in test [3]; 18 nM at KRas G12S; 9 nM at KRas WT; 12 nM at KRas G12C.
Consider `CCc1c(F)ccc2cc(O)cc(-c3ncc4c(N5CCC(C(=O)N6CCCCC6=O)CC5)nc(OC[C@@]56CCCN5C[C@H](F)C6)nc4c3F)c12` [Example 154, 1-(1-(7-(8-ethyl-7-fluoro-3-hydroxynaphthalen-1-yl)-8-fluoro-2-(((2R,7aS)-2-fluorotetrahydro-1H-pyrrolizin-7a(5H)-yl)methoxy)pyrido[4,3-d]pyrimidin-4-yl)piperidine-4-carbonyl)piperidin-2-one], for which the IC50 in test [1] was found to be 2870 nM; in test [2] it was 6280 nM; in test [3] it was 7230 nM; on KRas G12S it was 257 nM; at KRas WT, 131 nM; at KRas G12C, 338 nM.
Take `CCc1c(F)ccc2cc(O)cc(-c3ncc4c(N5CCC(C(=O)N(C)C(C)=O)CC5)nc(OC[C@@]56CCCN5C[C@H](F)C6)nc4c3F)c12` [Example 155, N-acetyl-1-(7-(8-ethyl-7-fluoro-3-hydroxynaphthalen-1-yl)-8-fluoro-2-(((2R,7aS)-2-fluorotetrahydro-1H-pyrrolizin-7a(5H)-yl)methoxy)pyrido[4,3-d]pyrimidin-4-yl)-N-methylpiperidine-4-carboxamide]: the IC50 in test [1] worked out at 671 nM; in test [2], 445 nM; in test [3] it was 2530 nM; at KRas G12S, 135 nM; at KRas WT, 140 nM; on KRas G12C it was 204 nM.
`CCc1c(F)ccc2cc(O)cc(-c3ncc4c(N5CC[C@@H]6[C@H](C5)[C@@H]6C(=O)n5ccc(C)n5)nc(OC[C@@]56CCCN5C[C@H](F)C6)nc4c3F)c12` [Example 157, ((1S,6R,7R)-3-(7-(8-ethyl-7-fluoro-3-hydroxynaphthalen-1-yl)-8-fluoro-2-(((2R,7aS)-2-fluorotetrahydro-1H-pyrrolizin-7a(5H)-yl)methoxy)pyrido[4,3-d]pyrimidin-4-yl)-3-azabicyclo[4.1.0]heptan-7-yl)(3-methyl-1H-pyrazol-1-yl)methanone]: the IC50 in test [1] worked out at 955 nM; in test [2], 7590 nM; in test [3] it was 2110 nM; on KRas G12S it was 122 nM; at KRas WT, 32 nM; on KRas G12C, 84 nM.
In the case of `CCc1c(F)ccc2cc(O)cc(-c3ncc4c(NC[C@H]5C[C@@H]5C(=O)n5ccc(C)n5)nc(OC[C@@]56CCCN5C[C@H](F)C6)nc4c3F)c12` [Example 159, ((1S,2S)-2-(((7-(8-ethyl-7-fluoro-3-hydroxynaphthalen-1-yl)-8-fluoro-2-(((2R,7aS)-2-fluorotetrahydro-1H-pyrrolizin-7a(5H)-yl)methoxy)pyrido[4,3-d]pyrimidin-4-yl)amino)methyl)cyclopropyl)(3-methyl-1H-pyrazol-1-yl)methanone], the IC50 came to 57 nM in test [1]; 6 nM in test [2]; 108 nM in test [3]; 4 nM at KRas G12S; 15 nM at KRas WT; 6 nM on KRas G12C.
In the case of `CCc1c(F)ccc2cc(O)cc(-c3ncc4c(N5C[C@H]6C[C@H](C(=O)n7ccc(C)n7)[C@H]6C5)nc(OC[C@@]56CCCN5C[C@H](F)C6)nc4c3F)c12` [Example 161, ((1S,5S,6S)-3-(7-(8-ethyl-7-fluoro-3-hydroxynaphthalen-1-yl)-8-fluoro-2-(((2R,7aS)-2-fluorotetrahydro-1H-pyrrolizin-7a(5H)-yl)methoxy)pyrido[4,3-d]pyrimidin-4-yl)-3-azabicyclo[3.2.0]heptan-6-yl)(3-methyl-1H-pyrazol-1-yl)methanone], the IC50 in test [1] was 7280 nM; in test [2], 717 nM; in test [3], over 10000 nM; at KRas G12S it was 185 nM; on KRas WT it was 282 nM; on KRas G12C, 86 nM.

Source of the values: patent publication US20260356856A1, “KRAS G12S AND G12C INHIBITORS” (MIRATI THERAPEUTICS, INC., priority 2023, published 2026).
